Laboratory results published in paper PMC6268492, “Synthesis and Antiangiogenic Activity of Novel Gambogic Acid Derivatives” (Molecules, 2012).

Assays:
HUVECs = test: Matrigel tube formation assay; type: cell-based, Human
Protocol: In the later stages of angiogenesis, tube formation of ECs is also an important process. Thus, a Matrigel tube formation assay was applied to assess the ability of HUVECs to form ECs vascular structures which is believed to be significant in new vessel formation.
Figure 4 Effects on the HUVECs tube formation. (I) HUVECs (1 × 10^4 cells) suspended in DMEM containing each compound (0.5 or 1 or 2 μM) were added to the Matrigel. Control was treated with DMEM alone. After incubation for 6 h at 37 °C, capillary networks were photographed and quantified (Olympus CKX41, magnification: 100×); (II) Rates of the HUVECs tube formation. The number of intact tubes was counted in five randomly chosen regions and expressed as the percentage of the control. The results were expressed as mean ±SD. ** p < 0.01; *** p < 0.005 compared with control.
Matrigel was dissolved at 4 °C overnight. Each well of prechilled 96-well plates was coated with 50 μL of Matrigel, incubated and solidified at 37 °C for 45 min. After removing the unsolidified fluid, HUVECs at the density of 1 × 10^4 were cultured in DMEM containing the indicated concentrations of compounds for 6 h. Controls were treated with the DMEM alone. Images were digitally captured and quantitatively analyzed (Olympus). The numbers and line lengths of the circular tubules formed by the cells were calculated manually. The values were observed from five randomly selected fields.

HUVEC = test: MTT assay, cell proliferation; type: cell-based, Human; details: Homo sapiens, 24 h, read-out: IC50, inhibition of cell proliferation
How it was run: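 Treatment lasted 24 h at 5 × 10^3 cells per well. MTT incubation ran 3 h, formazan was dissolved in DMSO and A570 was recorded. Percent growth against untreated wells gave the IC50 (50% inhibition).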

zebrafish embryos = test: Zebrafish toxicity: mortality rate; type: in vivo, zebrafish (Danio rerio)
Protocol: To investigate the toxicity of these four compounds, the heart rates and the mortality rates of zebrafish embryos were recorded (Table 2 and Table 3). The heart rate of zebrafish in the control group was 117 beats/min.
Using transgenic fli-1: enhanced GFP zebrafish embryos, we investigated the effects of all compounds on angiogenesis. Zebrafish embryos were generated by natural pairwise mating and raised at 28.5 °C in embryo water (0.2 g/L of Instant Ocean Salt in distilled water). At about 6 h post fertilization (hpf), the embryos were sorted in the 6-well plate (six embryos/well), removing dead and unhealthy embryos. Then the embryos were treated with the indicated concentrations of compounds which were added into embryo water. After incubation for 24 or 48 h, the embryos were anesthetized using 0.05% 2-phenoxyethanol in embryo water, quantified and photographed.

CC(=O)Nc1ccc(NC(=O)/C(C)=C\CC23OC(C)(C)C4CC(C=C5C(=O)c6c(O)c7c(c(CC8OC8(C)C)c6OC542)OC(C)(CCC2OC2(C)C)C=C7)C3=O)cc1 (stereo not drawn) [Compound 36, (32,33),(37,38)-Diepoxy-N-(4-acetamidophenyl) gambogamide]
improvement in the inhibition of tube formation compared with GA (HUVECs; 0.5 μM): 2 fold | inhibition at 0.5 µM (HUVECs; Homo sapiens, HUVEC, 0.5 μM, 6 h, vs control, read-out: inhibitory rates of tube formation): 56.5% | inhibition at 2 µM (HUVECs; Homo sapiens, HUVEC, 2 μM, read-out: tube formation inhibitory rate): 100% | inhibition of tubular structures (HUVECs; concentrations exceeding 1 μM): completely inhibit tubular structures | IC50 (HUVEC): 2450 ± 90 nM | Mortality rates (zebrafish embryos; 1 μM, zebrafish): 0% | Mortality rates (zebrafish embryos; 2.5 µM and 10 µM, zebrafish embryos): less than 20% | Mortality rates (zebrafish embryos; 2.5 μM, zebrafish): 3.3 ± 5.77 % | Mortality rates (zebrafish embryos; 10 μM, zebrafish): 16.7 ± 5.77 %
